The values that follow come from patent publication US5747499A, “Anti-cancer compounds” (British Technology Group Limited, priority 1994, dated 1998).

Read-outs that look alike come from different tables or passages of the source.

For data set [1], the system named is leukaemia cell line L1210. Description: Test (b): inhibition of growth of the leukaemia cell line L1210 in cell culture. As to conditions: Mus musculus. Type of data set: cell-based. From the text: (b) An assay which determines the ability of a test compound to inhibit the growth of the leukaemia cell line L1210 in cell culture. The test may be similar to that described in UK Patent Specification No. 2065653B and has been described by Jones et al. (J. Med. Chem., 1985, 28, 1468);

In another data set the target is T1, thymidylate synthase (Mus musculus, UniProt P07607).
T1 construct: Thymidylate synthase may be obtained in partially purified form from L1210 mouse leukaemia cells; endogenous in cells; host or cells: L1210 mouse leukaemia cells
T1 sequence (P07607 whole entry): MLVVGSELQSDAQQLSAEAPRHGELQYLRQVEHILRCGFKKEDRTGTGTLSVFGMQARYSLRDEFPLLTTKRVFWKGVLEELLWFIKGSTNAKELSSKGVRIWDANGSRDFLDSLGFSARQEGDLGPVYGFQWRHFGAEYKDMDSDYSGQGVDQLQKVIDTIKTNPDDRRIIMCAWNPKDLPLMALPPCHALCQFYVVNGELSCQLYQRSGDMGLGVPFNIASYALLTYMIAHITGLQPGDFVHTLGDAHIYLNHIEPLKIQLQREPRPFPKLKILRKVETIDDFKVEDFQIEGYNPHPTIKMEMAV
Description: Test (a): in vitro assay, inhibition of thymidylate synthase (partially purified from L1210 mouse leukaemia cells). The class given is biochemical. From the text: (a) An in vitro assay which determines the ability of a test compound to inhibit the enzyme thymidylate synthase.

Data set [2] has as its system human breast, ovarian and liver cancer. As to conditions: in vivo; cited from earlier work.
For data set [3] the following is noted: Cancer Treatment Reports, 1986, 70, 1335; cited from earlier work.
Where [4] appears, read: thymidylate synthase partially purified from L1210 mouse leukaemia cells, read-out: IC50 in test (a).

Consider `C#CCN(c1ccc(C(=O)N[C@@H](CCc2nnnn2CCC(=O)O)C(=O)O)cc1)C1CCc2cc3nc(C)[nH]c(=O)c3cc21` (mixture of isomers) [Example 14, (2S)-2-{p-[N-((6RS)-2-methyl-4-oxo-3,4,7,8-tetrahydro-6H-cyclopenta[g]quinazolin-6-yl)-N-(prop-2-ynyl)amino]benzamido}-4-[1-(2-carboxyethyl)tetrazol-5-yl]butyric acid], for which the values for the 50% inhibitory concentration (IC50) (in data set [1]; against thymidylate synthase) were 630 nM and 1.84 nM, respectively.
In the same order, the values of `C#CCN(c1ccc(C(=O)N[C@@H](CCC(=O)N[C@H](CCC(=O)O)c2nnn[nH]2)C(=O)O)cc1)C1CCc2cc3nc(C)[nH]c(=O)c3cc21` (mixture of isomers) [Example 18, (4R)-4-{N-{N-{p-[N-((6RS)-2-Methyl-4-oxo-3,4,7,8-tetrahydro-6H-cyclopenta[g]quinazolin-6-yl)-N-(prop-2-ynyl)amino]benzoyl}-L-γ-glutamyl}amino}-4-(tetrazol-5-yl)butyric acid] are 860 nM and 1.08 nM.
In the same order, the values of `Cc1nc2cc3c(cc2c(=O)[nH]1)C(N(C)c1ccc(C(=O)N[C@@H](CCc2nnn(CC(=O)O)n2)C(=O)O)c(F)c1)CC3` (mixture of isomers) [Example 10, (2S)-2-{o-Fluoro-p-[N-methyl-N-((6RS)-2-methyl-4-oxo-3,4,7,8-tetrahydro-6H-cyclopenta[g]quinazolin-6-yl)amino]benzamido}-4-(2-carboxymethyltetrazol-5-yl)-butyric acid] are 1200 nM and 8.8 nM.
The compound `Cc1nc2cc3c(cc2c(=O)[nH]1)C(N(C)c1ccc(C(=O)N[C@H](C(=O)O)c2ccc(CC(=O)O)cc2)c(F)c1)CC3` (mixture of isomers) [Example 8, (2S)-2-{o-fluoro-p-[N-methyl-N-((6RS)-2-methyl-4-oxo-3,4,7,8-tetrahydro-6H-cyclopenta[g]quinazolin-6-yl)amino]benzamido}-2-[p-(carboxymethyl)phenyl]acetic acid] gave an IC50 against thymidylate synthase of 7.6 nM.
For the compound `C#CCN(c1ccc(C(=O)N[C@@H](CCC(=O)N(C)[C@@H](CCC(=O)O)C(=O)O)C(=O)O)cc1)C1CCc2cc3nc(C)[nH]c(=O)c3cc21` (mixture of isomers) [Example 13, N-{p-[N-((6RS)-2-Methyl-4-oxo-3,4,7,8-tetrahydro-6H-cyclopenta[g]quinazolin-6-yl)-N-(prop-2-ynyl)amino]benzoyl}-L-γ-glutamyl-N-methyl-L-glutamic acid], the IC50 was determined as 2300 nM in data set [1] and 1.42 nM against thymidylate synthase.
Regarding `C#CCN(c1ccc(C(=O)N[C@@H](CCCS(=O)(=O)c2nnc[nH]2)C(=O)O)cc1)C1CCc2cc3nc(C)[nH]c(=O)c3cc21` (mixture of isomers) [Example 17, (2S)-2-{p-[N-((6RS)-2-methyl-4-oxo-3,4,7,8-tetrahydro-6H-cyclopenta[g]quinazolin-6-yl)-N-(prop-2-ynyl)amino]benzamido}-5-(1H-1,2,4-triazol-3-ylsulphonyl)pentanoic acid], the figures for the IC50 (in data set [1]; on thymidylate synthase (setting [4])) were 250 nM and 1.58 nM, respectively.
`C#CCN(c1ccc(C(=O)N[C@@H](CCc2nnnn2CC(=O)N[C@H](C)C(=O)O)C(=O)O)cc1)C1CCc2cc3nc(C)nc(O)c3cc21` (some centres unmarked) [Example 16]: the IC50 in data set [1] was 10000 nM; on thymidylate synthase, 3.4 nM.
In the same order, the values of `Cc1nc2cc3c(cc2c(=O)[nH]1)[C@H](N(C)c1ccc(C(=O)N[C@@H](CCC(=O)N[C@@H](C(=O)O)c2ccc(CC(=O)O)cc2)C(=O)O)c(F)c1)CC3` (mixture of isomers) [Example 12, (2RS)-2-{N-{N-{o-Fluoro-p-[N-methyl-N-((6RS)-2-methyl-4-oxo-3,4,7,8-tetrahydro-6H-cyclopenta[g]quinazolin-6-yl)amino]benzoyl}-L-γ-glutamyl}amino}-2-[p-(carboxymethyl)phenyl]acetic acid] are 3900 nM and 4 nM.
As for `C#CCN(Cc1ccc2nc(N)[nH]c(=O)c2c1)c1ccc(C(=O)N[C@@H](CCC(=O)O)C(=O)O)cc1` [CB3717], the “activity against human breast, ovarian and liver cancer” value in data set [2] is “promising activity against human breast, ovarian and liver cancer”. In data set [3], the “symptoms of toxicity in humans” value was “shows symptoms of toxicity in humans, particularly in relation to the liver and kidneys”.
`C#CCN(c1ccc(C(=O)N[C@@H](CCC(=O)N[C@@H](CCc2nnnn2CC(=O)O)C(=O)O)C(=O)O)cc1)C1CCc2cc3nc(C)[nH]c(=O)c3cc21` (mixture of isomers) [Example 15, (2S)-2-{N-{N-{p-[N-((6RS)-2-Methyl-4-oxo-3,4,7,8-tetrahydro-6H-cyclopenta[g]quinazolin-6-yl)-N-(prop-2-ynyl)amino]benzoyl}-L-γ-glutamyl}amino}-4-(1-carboxymethyltetrazol-5-yl)butyric acid]: the IC50 stood at 7200 nM in data set [1] and 1.08 nM on thymidylate synthase (setting [4]).
On to `Cc1nc2cc3c(cc2c(=O)[nH]1)C(N(C)c1ccc(C(=O)N[C@@H](CCc2nnnn2CC(=O)O)C(=O)O)c(F)c1)CC3` (mixture of isomers) [Example 11, (2S)-2-{o-Fluoro-p-[N-methyl-N-((6RS)-2-methyl-4-oxo-3,4,7,8-tetrahydro-6H-cyclopenta[g]quinazolin-6-yl)amino]benzamido}-4-(1-carboxymethyltetrazol-5-yl)-butyric acid], for which the IC50 in data set [1] was determined as 23000 nM; against thymidylate synthase, 14.8 nM.
For the compound `C#CCN(c1ccc(C(=O)N[C@@H](CCC(=O)N[C@H](C)C(=O)O)C(=O)O)cc1)C1CCc2cc3nc(C)nc(O)c3cc21` (mixture of isomers) [Example 19, N-{N-{p-[N-((6RS)-2-methyl-4-oxo-3,4,7,8-tetrahydro-6H-cyclopenta[g]quinazolin-6-yl)-N-(prop-2-ynyl)amino]benzoyl}-L-γ-glutamyl}-D-alanine], the IC50 in data set [1] is 520 nM; at thymidylate synthase (setting [4]), 1.84 nM.
